Laboratory results taken from ChEMBL document CHEMBL1131920, “Periodinates: a new class of protein tyrosine phosphatase inhibitors” (Bioorg Med Chem Lett, 1999).

How the values were obtained:
[1] = target: T1, Tyrosine-protein phosphatase non-receptor type 1 (Homo sapiens, UniProt P18031); test: Inhibition of protein tyrosine phosphatase 1B (PTP1B) activity in 3,6-fluorescein diphosphate (FDP) assay
T1 sequence (P18031 whole entry): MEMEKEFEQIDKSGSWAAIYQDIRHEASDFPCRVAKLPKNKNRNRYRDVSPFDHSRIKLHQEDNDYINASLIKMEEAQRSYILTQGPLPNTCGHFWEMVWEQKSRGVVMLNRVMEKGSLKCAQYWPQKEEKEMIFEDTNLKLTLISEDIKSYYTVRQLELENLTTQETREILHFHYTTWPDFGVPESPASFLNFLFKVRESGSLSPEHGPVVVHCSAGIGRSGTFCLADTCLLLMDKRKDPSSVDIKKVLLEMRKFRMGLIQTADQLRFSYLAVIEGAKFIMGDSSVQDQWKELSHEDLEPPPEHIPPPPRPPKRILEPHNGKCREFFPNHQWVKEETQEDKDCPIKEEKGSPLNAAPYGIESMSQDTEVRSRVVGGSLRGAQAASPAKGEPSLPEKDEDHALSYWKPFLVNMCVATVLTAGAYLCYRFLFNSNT

[2] = species on record: Rattus norvegicus; test: Inhibition of protein tyrosine phosphatase (PTP) activity in rat liver endosome insulin receptor (IR) dephosphorylation assay at 1 mM
[3] = species on record: Rattus norvegicus; test: Inhibition of protein tyrosine phosphatase (PTP) activity in rat liver endosome insulin receptor (IR) dephosphorylation assay at 0.1 mM
[4] = target: T1, Tyrosine-protein phosphatase non-receptor type 1; test: Inhibition of protein tyrosine phosphatase 1B (PTP1B) activity in 3,6-fluorescein diphosphate (FDP) assay; NI= no inhibition

Row | Compound | IC50 [1] [mM] | inhibition [2] [%] | inhibition [3] [%] | IC50 [4]
1 | O=I(=O)c1ccc(I(=O)=O)cc1 | 1.41 | 30 | – | –
2 | CC(C)(C)OOI1OC(=O)c2ccccc21 | 0.23 | 78 | 48 | –
3 | Cc1ccc(I(=O)=O)cc1 | 1.51 | 47 | 6 | –
4 | O=I(=O)c1c[nH]cn1 | 1.05 | 43 | 22 | –
5 | O=[N+]([O-])c1cccc(I(=O)=O)c1 | 1.14 | 86 | 27 | –
6 | O=C1OI(=O)(O)c2ccccc21 (stereo not given) | 1.16 | 98 | 36 | –
7 | O=C1OI(O)c2ccccc21 | – | 10 | – | Not Active
8 | O=P1(O)Oc2ccccc2I(=O)(O)O1 (stereo not given) | 0.35 | – | 17 | –
9 | O=[N+]([O-])c1ccc(I(=O)=O)cc1 | 0.13 | 90 | 30 | –
10 | O=I(=O)c1ccccc1 | 2.65 | 88 | 0 | –
11 | O=C(O)c1cccc(I(=O)=O)c1 | 0.89 | 67 | 32 | –
12 | CC(=O)OI1(OC(C)=O)(OC(C)=O)OC(=O)c2ccccc21 | 0.13 | 69 | 50 | –
13 | OO | – | 65 | 0 | –
